This is an account of results in US20250152570A1 (AIR FORCE MEDICAL UNIVERSITY, priority 2022, published 2025).

Molecules are shown by their SMILES.

Assay [1] concerns ECA109 cells. Briefly: Transwell migration assay, ECA109. Format: cell-based. The conditions noted are these: compared with the blank control. The procedure: (§1) At the same time, BI-D1870 was used as a positive control, and no drug was used as a blank control (Black).
(§2) • (1) Digest cells. Wash once with PBS, resuspend in serum-free medium, and adjust the cell density to 5×10^5/ml. • (2) Add 500 μl of culture medium containing 10% fetal bovine serum to the lower chamber of the 24-well plate. Take 200 μl of cell suspension and add it to the chamber. Note that there are no bubbles between the chamber and the lower culture medium. • (3) Culture routinely for 16-24 h. • (4) Aspirate the culture medium in the chamber, fix the cells in the chamber with anhydrous methanol for 15 min, and rinse with PBS. • (5) Color: Add Gumsa staining solution to the 24-well plate, immerse the membrane in the staining solution for 20 min, and wash with PBS. • (6) Carefully wipe off the cells on the inner layer of the membrane with a cotton swab and air-dry the membrane. • (7) Take pictures under a microscope, count 5 high-power fields, and take the average value.

Assay [2] relates to ECA109 cells. Briefly: CCK8 cell proliferation, ECA109. It counts as cell-based. The note with it: compared with the blank control.
Source text: as §1
(§3) The growth curve was drawn based on time and absorbance value.

For assay [3], the system named is ESCC cells. Description: Nude mouse tumor formation experiment, esophageal squamous cell carcinoma. It counts as in vivo, BALB/c nude mice. The conditions noted are these: intraperitoneally 15 mg/kg or 30 mg/kg per day; 20 days. The procedure:
• (1) Nude mouse tumor formation experiment was performed on 4-6 week old female BALB/c nude mice, with 5 nude mice in each group. Each mouse was subcutaneously injected with about 1×10^6 ESCC cells dissolved in 200 μl sterile PBS. • (2) When the tumor volume reached 150 mm^3, the mice were divided into groups and treated differently. […] If the mice were infected or in poor condition, they were treated in time. During this period, the tumor volume was measured every 3-5 days, and the volume calculation formula was length×width 2×0.5. • (4) At the end of the experiment, the mice were killed, the subcutaneous tumors were removed, photographed, weighed, and counted.

For assay [4], the system named is B16F10 (melanoma). Description: B16F10 (melanoma) transplant tumor model. It counts as in vivo, C57BL/6 mice. The note with it: Selonsertib 15 mg/kg per day i.p.; Anti-PD1 50 μg/kg once every two days; 10 days. Here is the method: (§4) • (1) B16F10 (melanoma) and LLC (Lewis lung cancer) transplant tumor models were constructed in 6-8 week old C57BL/6 mice, with 6 mice in each group. Each mouse was subcutaneously injected with about 1×10^6 B16F10 cells and 5×10^6 LLC cells dissolved in 200 μl sterile PBS. • (2) When the tumor volume reached 150 mm^3, the mice were divided into groups and treated differently. […] The Anti-PD1 used in this experiment was specifically In VivoPlus anti-mouse PD-1 (CD279). • (3) The experimental observation time lasted for 10 days (melanoma) or 20 days (Lewis lung cancer). If the mice were infected or in poor condition, they were treated in time. During the period, the tumor volume was measured every 2 days, and the volume calculation formula was length×width 2×0.5. • (4) At the end of the experiment, the mice were killed, the subcutaneous tumors were removed, photographed, weighed, and counted.

The test system of assay [5] is KYSE450-IR. Briefly: CCK8 proliferation of icotinib-resistant strain KYSE450-IR. The note with it: for proliferation of KYSE450-IR: 2 μm, CCK8, DMSO blank control. It counts as cell-based. The procedure:
(§5) The CCK-8 cell proliferation kit of Shanghai Taoshu Biotechnology Co., Ltd. was used. • (1) Cell suspension was inoculated in a 96-well plate, 100 μL per well, 2,000 cells per well. • (2) Culture or give drugs according to experimental needs, and treat for an appropriate time. • (3) Add 10 μL of CCK-8 solution to each well and incubate at 37° C. • (4) The absorbance value was determined by selecting a wavelength of 450 nm on the microplate reader. The growth curve was drawn based on time and absorbance value.
(§6) The expression level of EGFR and the sensitivity to icotinib and afatinib in various ESCC cell lines (T1, T10, T11, KYSE150, KYSE450, ECA109, EC9706) were detected. The cell line KYSE450 with high EGFR expression and sensitivity to afatinib (low IC50) was selected. The icotinib and afatinib drug concentration increasing mode of action was used to induce KYSE450 cells to produce drug resistance, and a stable cell line resistant to icotinib and afatinib was obtained. The optimal drug concentration gradient for inducing afatinib obtained from the literature reports and the preliminary experiments before formal induction culture was: 100 nM, 300 nM, 500 nM, 800 nM, 1 μM and 5 μM. The initial induction dose of this experiment was 100 nM, and the highest induction dose was 5 μM. During the induction period, the culture medium containing icotinib and afatinib was replaced every 2 days. When the initial induction dose was induced for two weeks and the cell growth was stable, the drug induction dose began to be doubled, and each dose was maintained for 14 days before reaching the highest induction dose. The drug-resistant cells obtained after 10 months of induction culture were named KYSE450/IR KYSE450/AR cell lines.

Assay [6] relates to RSK4 downstream substrates (P-RPS6, P-GSK3β). Description: Western blot of phosphorylation level of RSK4 downstream substrates. The conditions noted are these: TE10, ECA109 cells. Format: cell-based. Here is the method:
Western blot was used to detect the effect of phosphorylation level of RSK4 downstream substrates.
(1) Protein extraction, using Kangwei Century RIPA lysis buffer. Place the cell culture flask on ice for 20 minutes, shake it back and forth, and blow it with a pipette. Scrape the cells with a cell scraper, transfer them to an EP tube, and centrifuge them at 4° C. 10-20 μl can be aspirated for protein quantification. Add loading buffer, boil for 5 min, centrifuge at 12000 rpm for 5 min, and store in an ultra-low temperature refrigerator. Tissue protein extraction: Grind in liquid nitrogen, transfer to EP tube after melting, lyse on ice for 20 min, and centrifuge at 4° C.
(2) Protein quantification, use the Kangwei Century BCA quantification kit. Make two replicate wells for each sample, take the average value to make a standard curve and calculate the sample concentration.
(3) Protein electrophoresis, use the Kangwei Century SDS-PAGE gel preparation kit. The separation gel concentration is 8%, and the concentration gel concentration is 5%. The separation gel is 1.5 cm away from the upper edge of the front glass plate and filled with water to seal the gel. Use filter paper to absorb the water sealing liquid, fill the concentrated gel, and insert the comb. The voltage is 100V constant for 1 h30 min until the bromophenol blue runs out and stops electrophoresis.
(4) Transfer to membrane, soak the gel, filter paper, and sponge pad in 4° C. pre-cooled transfer buffer for 10 min, soak the PVDF membrane with methanol for 5 min, and transfer it to the transfer buffer for 10 min after it is fully wetted. Installation The order of transfer clips: black plate, sponge, 3 layers of filter paper, gel, membrane, 3 layers of filter paper, sponge, white plate. Expel bubbles at each step and place the membrane in one go. […]
(8) Luminescence: Use the Kangwei Century Chemiluminescence Detection Kit and scan the detection results with a chemiluminescence imager.
(9) Use Photoshop software to perform semi-quantitative grayscale analysis of the image and calculate the relative expression of the protein.

Assay [7] relates to LLC (Lewis lung cancer). Description: LLC (Lewis lung cancer) transplant tumor model. Format: in vivo, C57BL/6 mice. The note with it: Selonsertib 15 mg/kg per day i.p.; Anti-PD1 50 μg/kg once every two days; 20 days. The procedure:
as §4

The subject of assay [8] is KYSE450/AR. Briefly: CCK8 proliferation of afatinib-resistant strain KYSE450/AR. Format: cell-based. The note with it: FIG. 10. Here is the method: as §5
as §6, with “When the initial induction dose was induced for two weeks and the cell growth was stable, the drug induction dose began to be doubled, and each dose was maintained for 14 days before reaching the highest induction dose. The drug-resistant cells obtained after 10 months of induction culture were named KYSE450/IR KYSE450/AR cell lines.” left out

Assay [9] relates to TE10 cells. Briefly: CCK8 cell proliferation, TE10. Format: cell-based. The note with it: compared with the blank control.
Source text: as §1, §3

The subject of assay [10] is TE10 cells. Description: Transwell migration assay, TE10. It counts as cell-based. The conditions noted are these: compared with the blank control. Here is the method: as §1, §2

As for `Cc1cc(F)c(C(=O)Nc2cccc(-c3nncn3C(C)C)n2)cc1-n1cnc(C2CC2)c1` [Selonsertib, 5-(4-cyclopropyl-1H-imidazol-1-yl)-2-fluoro-N-(6-(4-isopropyl-4H-1,2,4-triazol-3-yl)pyridine-2-yl)-4-methylbenzamide], in assay [1], the “migration of ECA109” value is recorded as “can inhibit”. Further, the “proliferation of ECA109” value in assay [2] is given as “can inhibit”. Moreover, the “inhibitory effect on tumor growth compared with the positive control (BI-D1870)” value in [3] is “stronger inhibitory effect on tumor growth at a lower dose”. In assay [4], the “proliferation of melanoma (tumor growth)” value was “can inhibit”. The “proliferation of KYSE450-IR” value in [5] was “can inhibit”. Also, the “resistance of esophageal squamous cell carcinoma to icotinib” value in assay [5] (FIG. 9) is recorded as “reverses the resistance”. Moreover, in [6], the “expression of P-GSK3β (ser9)” value was “downregulate” and the “expression of P-RPS6 (S235/S236)” value is recorded as “downregulate”. Further, in [6] (different concentrations), the “phosphorylation of RSK4 downstream substrates” value is given as “could inhibit”. In addition, the “proliferation of Lewis lung cancer (tumor growth)” value in [7] is given as “can inhibit”. Besides, the KYSE450/AR proliferation entry in assay [8] (2 μm, CCK8) is listed as “basically consistent with those of KYSE450-IR”. Besides, the “resistance of esophageal squamous cell carcinoma to afatinib” value in assay [8] is “reverses the resistance”. The “proliferation of TE10” value in [9] was “can inhibit”. Further, the “migration of TE10” value in assay [10] is reported as “can inhibit”.

As for `C#Cc1cccc(Nc2ncnc3cc4c(cc23)OCCOCCOCCO4)c1` [icotinib], the “proliferation of KYSE450-IR” value in [5] was “extremely low”.

As for `CC(C)CCN1c2nc(Nc3cc(F)c(O)c(F)c3)ncc2N(C)C(=O)C1C` (stereo not shown) [BI-D1870], the “migration of ECA109” value in [1] is recorded as “can inhibit”. In addition, the “proliferation of ECA109” value in assay [2] is recorded as “can inhibit”. The “proliferation of TE10” value in assay [9] is listed as “can inhibit”. For the same compound, the “migration of TE10” value in assay [10] is “can inhibit”.
